# Measured values as given in patent US4431809A, “Antibiotic A-33853 derivatives” (Eli Lilly and Company, priority 1982, dated 1984).
# Where two headings read alike, the source gives them in different places.
# How the values were obtained:
# [1] = system: Maryland B influenza virus; assay: In vitro antiviral activity, Maryland B influenza virus; assay type: cell-based; details: in words
# Trichomonas vaginalis = assay: Tube-dilution test, Trichomonas vaginalis; assay type: cell-based; details: for MIC: Trichomonas vaginalis, tube-dilution test, T. vaginalis, read-out: minimal inhibitory concentration (MIC); for in vitro activity against Trichomonas vaginalis: in words
# Mycoplasma hyorhinis = assay: In vitro MIC, bacteria pathogenic to animals; assay type: cell-based
# Method: (§1) Antibiotic A-33853 was also tested in vitro to determine the MIC in μg./ml. against a number of bacterial organisms pathogenic to animals.
# [2] = system: Pasteurella multocida (bovine); assay: In vitro MIC, bacteria pathogenic to animals; assay type: cell-based
# Method: as §1
# Aeromonas liquefaciens = assay: In vitro MIC, bacteria pathogenic to animals; assay type: cell-based; details: Aeromonas hydrophila
# Method: as §1
# [3] = system: Pasteurella multocida (turkey); assay: In vitro MIC, bacteria pathogenic to animals; assay type: cell-based
# Method: as §1
# Salmonella dublin = assay: In vitro MIC, bacteria pathogenic to animals; assay type: cell-based; details: Salmonella enterica
# Method: as §1
# Mycoplasma synoviae = assay: In vitro MIC, bacteria pathogenic to animals; assay type: cell-based; details: Mycoplasmopsis synoviae
# Method: as §1
# [4] = system: Bordetella bronchiseptica; assay: In vitro MIC, bacteria pathogenic to animals; assay type: cell-based
# Method: as §1
# Staphylococcus sp. = assay: In vitro MIC, bacteria pathogenic to animals; assay type: cell-based
# Method: as §1
# Mycoplasma gallisepticum = assay: In vitro MIC, bacteria pathogenic to animals; assay type: cell-based; details: Mycoplasmoides gallisepticum
# Method: as §1
# Pseudomonas (animal) = assay: In vitro MIC, bacteria pathogenic to animals; assay type: cell-based
# Method: as §1
# Escherichia coli = assay: In vitro MIC, bacteria pathogenic to animals; assay type: cell-based
# Method: as §1
# Mycoplasma hyopneumoniae = assay: In vitro MIC, bacteria pathogenic to animals; assay type: cell-based; details: Mesomycoplasma hyopneumoniae
# Method: as §1
# Pseudomonas (fish) = assay: In vitro MIC, bacteria pathogenic to animals; assay type: cell-based
# Method: as §1
# Streptococcus sp. = assay: In vitro MIC, bacteria pathogenic to animals; assay type: cell-based
# Method: as §1
# Salmonella typhosa SA12 = assay: Agar-dilution screening (ICS); details: Salmonella enterica
# [5] = system: Staphylococcus aureus 3130; assay: Disc-plate screening; assay type: cell-based; details: benzylpenicillin resistant, methicillin resistant, read-out: Zone Diameter
# Method: (§2) Agar plates, inoculated with the test organism, were used; 6 mm. discs (0.02 ml. capacity) were saturated from log 2 dilutions of the antibiotic solution. Disc content was 1/5 or 1/50 of the concentration of the solution used, i.e., disc content of […] 30 μg. was obtained from a solution of 1500 μg./ml. concentration.
# [6] = system: Staphylococcus aureus 3074; assay: Disc-plate screening; assay type: cell-based; details: benzylpenicillin resistant, read-out: Zone Diameter
# Method: as §2
# [7] = system: Streptococcus pyogenes C203; assay: Disc-plate screening; assay type: cell-based; details: read-out: Zone Diameter
# Method: as §2
# [8] = system: Staphylococcus aureus 3055; assay: Disc-plate screening; assay type: cell-based; details: benzylpenicillin-susceptible, read-out: Zone Diameter
# Method: as §2
# physchem = details: 66% dimethylformamide in water
# [9] = system: Staphylococcus aureus 3055; assay: Agar-dilution screening (ICS); assay type: cell-based; details: benzylpenicillin-susceptible
# [10] = system: Staphylococcus aureus 3074; assay: Agar-dilution screening (ICS); assay type: cell-based; details: benzylpenicillin resistant
# mosquito = assay: Mosquito larvicide activity; assay type: in vivo; details: in words
# Eimeria tenella = assay: In vitro activity against Eimeria tenella; assay type: cell-based; details: in words
# Solubility = assay type: physicochemical
# [11] = Acute toxicity in the mouse, IP; details: in vivo
# [12] = system: Streptococcus pyogenes C203; assay type: cell-based; details: agar-dilution, 24 hours
# [13] = system: Streptococcus sp. Group D 9960; assay type: cell-based; details: agar-dilution, 24 hours
# [14] = system: Haemophilus influenzae C.L.; assay type: cell-based; details: agar-dilution, 24 hours
# [15] = system: Streptococcus sp. Group D X66; assay type: cell-based
# [16] = system: Staphylococcus aureus X400; assay type: cell-based; details: agar-dilution, 24 hours
# [17] = system: Staphylococcus epidermidis EPI1; assay type: cell-based; details: EPI1, 24 h
# [18] = system: Staphylococcus aureus V41; assay type: cell-based
# [19] = system: Streptococcus pneumoniae Park I; assay type: cell-based; details: 24 h
# [20] = system: Haemophilus influenzae 76; assay type: cell-based; details: agar-dilution, 24 hours
# [21] = system: Staphylococcus epidermidis 222; assay type: cell-based; details: agar-dilution, 24 hours
# [22] = 66 percent aqueous dimethylformamide
# [23] = alkaline solutions and most organic solvents
structure (smiles),measurement,setting,value
"O=C(Nc1c(O)cccc1-c1nc2c(C(=O)O)cccc2o1)c1ncccc1O [A-33853, 2-[3-hydroxy-2-[[(3-hydroxy-2-pyridinyl)carbonyl]amino]phenyl]-4-benzoxazolecarboxylic acid]",growth inhibition / activity in vitro,[1],inhibits the growth in vitro
same,MIC,Trichomonas vaginalis,< 0.975 µg/mL
same,in vitro activity against Trichomonas vaginalis,Trichomonas vaginalis,active in vitro
same,MIC,Mycoplasma hyorhinis,1.56 µg/mL
same,MIC,[2],1.56 µg/mL
same,MIC,Aeromonas liquefaciens,3.12 µg/mL
same,MIC,[3],6.25 µg/mL
same,MIC,Salmonella dublin,> 50 µg/mL
same,MIC,Mycoplasma synoviae,1.56 µg/mL
same,MIC,[4],> 50 µg/mL
same,MIC,Staphylococcus sp.,3.12 µg/mL
same,MIC,Mycoplasma gallisepticum,1.56 µg/mL
same,MIC,Pseudomonas (animal),> 50 µg/mL
same,MIC,Escherichia coli,> 50 µg/mL
same,MIC,Mycoplasma hyopneumoniae,< 0.78 µg/mL
same,MIC,Pseudomonas (fish),50 µg/mL
same,MIC,Streptococcus sp.,6.25 µg/mL
same,MIC,Salmonella typhosa SA12,2 µg/mL
same,zone of inhibition at 30 µg/disc,[5]; 30 μg./disc,13.2 mm
same,zone of inhibition at 300 µg/disc,[5]; 300 μg./disc,13.4 mm
same,zone of inhibition at 30 µg/disc,[6]; 30 μg./disc,10.4 mm
same,zone of inhibition at 300 µg/disc,[6]; 300 μg./disc,11.6 mm
same,zone of inhibition at 30 µg/disc,[7]; 30 μg./disc,0 mm
same,zone of inhibition at 300 µg/disc,[7]; 300 μg./disc,8 mm
same,zone of inhibition at 30 µg/disc,[8]; 30 μg./disc,10 mm
same,zone of inhibition at 300 µg/disc,[8]; 300 μg./disc,11 mm
same,pKa,"physchem; pH 5, pKa (first titratable group)",~7.25
same,pKa,"physchem; pH 5, pKa (second titratable group)",~10
same,pKa,"physchem; pH 5, pKa (third titratable group)",~12.2
same,MIC,[9],2 µg/mL
same,MIC,[10],2 µg/mL
same,mosquito larvicide activity,mosquito,active as a mosquito larvicide
same,in vitro activity against Eimeria tenella,Eimeria tenella,active in vitro
same,solubility,"Solubility; acetone, methanol, ethyl acetate, tetrahydrofuran, chloroform, and water",less soluble
same,solubility,"Solubility; organic solvent or mixture, soluble in dimethylsulfoxide, pyridine, and 0.1 N sodium hydroxide, read-out: solubility",≥ 5000 µg/mL
same,LD50,[11],> 300 mg/kg
CC(=O)Oc1cccnc1C(=O)Nc1c(OC(C)=O)cccc1-c1nc2c(C(=O)O)cccc2o1 [diacetyl derivative],MIC,[12],8 µg/mL
same,MIC,[13],> 128 µg/mL
same,pKa,"physchem; pH 4.92, pKa",6.8
same,MIC,[14],4 µg/mL
same,MIC,[15]; 24 h,> 128 µg/mL
same,MIC,[16],16 µg/mL
same,MIC,[17],8 µg/mL
same,MIC,"[18]; V41, 24 h",16 µg/mL
same,MIC,[19],8 µg/mL
same,MIC,[20],64 µg/mL
same,MIC,[21],4 µg/mL
same,solubility,Solubility; [23],soluble
same,solubility,Solubility; hydrocarbon solvents and water,insoluble
"CC(=O)OC(=O)c1cccc2oc(-c3cccc(OC(C)=O)c3N(C(C)=O)C(=O)c3ncccc3OC(C)=O)nc12 [tetraacetyl A-33853, 2-[2-[acetyl[[3-(acetyloxy)-2-pyridinyl]carbonyl]amino]-3-(acetyloxy)phenyl]-4-benzoxazolecarboxylic acid, anhydride with acetic acid]",growth inhibition / activity in vitro,[1],active in vitro
same,MIC,Trichomonas vaginalis,125 µg/mL
same,in vitro activity against Trichomonas vaginalis,Trichomonas vaginalis,active in vitro
same,titratable groups,[22],no titratable groups
same,solubility,"Solubility; acetone, methanol, ethyl acetate, tetrahydrofuran, water, dimethyl sulfoxide, 0.1 N aqueous NaOH, 0.1 N aqueous HCl","insoluble, or only sparingly soluble"
same,solubility,"Solubility; organic solvent or mixture, soluble in pyridine and chloroform, read-out: solubility",≥ 1000 µg/mL
CC(=O)Oc1cccnc1C(=O)N(C(C)=O)c1c(OC(C)=O)cccc1-c1nc2c(C(=O)O)cccc2o1 [triacetyl derivative],MIC,[12],8 µg/mL
same,MIC,[13],> 128 µg/mL
same,pKa,"physchem; pH 4.7, pKa",6.85
same,MIC,[14],4 µg/mL
same,MIC,"[15]; agar-dilution, 24 hours, read-out: MIC",> 128 µg/mL
same,MIC,[16],64 µg/mL
same,MIC,[17]; read-out: MIC,16 µg/mL
same,MIC,"[18]; V41, agar-dilution, 24 hours, read-out: MIC",32 µg/mL
same,MIC,[19],32 µg/mL
same,MIC,[20],64 µg/mL
same,MIC,[21],4 µg/mL
same,solubility,Solubility; [23],soluble
same,solubility,Solubility; hydrocarbon solvents and water,insoluble
